Assays:
recombinant human sEH = target: T1, recombinant human sEH (Homo sapiens, UniProt P34913); test: sEH IC50 kinetic fluorescent assay; type: biochemical
T1 sequence (P34913 1-555): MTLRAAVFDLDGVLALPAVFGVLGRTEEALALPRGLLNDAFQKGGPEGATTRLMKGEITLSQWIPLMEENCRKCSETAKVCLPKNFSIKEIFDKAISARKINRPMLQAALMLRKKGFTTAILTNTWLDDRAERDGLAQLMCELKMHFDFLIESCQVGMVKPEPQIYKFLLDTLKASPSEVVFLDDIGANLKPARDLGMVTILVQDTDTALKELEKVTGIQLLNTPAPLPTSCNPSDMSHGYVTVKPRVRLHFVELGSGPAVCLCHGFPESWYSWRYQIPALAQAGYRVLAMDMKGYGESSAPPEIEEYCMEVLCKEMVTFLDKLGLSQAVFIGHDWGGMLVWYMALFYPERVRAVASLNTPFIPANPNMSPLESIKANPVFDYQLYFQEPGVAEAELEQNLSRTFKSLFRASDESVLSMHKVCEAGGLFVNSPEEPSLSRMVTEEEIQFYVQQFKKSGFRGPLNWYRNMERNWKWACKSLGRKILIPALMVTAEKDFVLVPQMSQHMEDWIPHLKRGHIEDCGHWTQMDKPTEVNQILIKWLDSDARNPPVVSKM

[1] = Pharmacokinetic screening by oral cassette dosing in mice; type: in vivo; details: mouse; compared to 21i and 21j
human recombinant COX-2 = target: T2, human recombinant COX-2 (Homo sapiens, UniProt P35354); test: COX Fluorescent Inhibitor Screening Assay, COX-2; details: compared to compound 21b
T2 sequence (P35354 18-604): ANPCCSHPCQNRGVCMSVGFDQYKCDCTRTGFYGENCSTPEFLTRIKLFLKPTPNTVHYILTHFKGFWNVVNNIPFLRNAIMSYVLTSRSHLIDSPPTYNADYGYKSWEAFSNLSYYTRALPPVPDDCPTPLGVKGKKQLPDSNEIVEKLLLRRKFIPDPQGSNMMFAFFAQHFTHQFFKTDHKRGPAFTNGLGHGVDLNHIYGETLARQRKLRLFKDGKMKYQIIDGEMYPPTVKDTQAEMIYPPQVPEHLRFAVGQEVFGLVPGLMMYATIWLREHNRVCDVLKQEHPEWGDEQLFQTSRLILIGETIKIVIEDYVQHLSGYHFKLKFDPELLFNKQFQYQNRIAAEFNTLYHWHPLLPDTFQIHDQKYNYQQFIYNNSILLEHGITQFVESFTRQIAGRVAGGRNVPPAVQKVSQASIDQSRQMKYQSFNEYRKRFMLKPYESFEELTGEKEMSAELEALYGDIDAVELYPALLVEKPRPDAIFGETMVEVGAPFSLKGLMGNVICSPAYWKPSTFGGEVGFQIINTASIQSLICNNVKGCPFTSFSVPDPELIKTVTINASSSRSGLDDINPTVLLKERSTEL

[2] = Pharmacokinetics after oral administration in rats; type: in vivo; details: rat; compared with 21j
Sprague-Dawley rats = type: in vivo; details: rats treated at 10 mg/kg s.c., observed over nine hours
U937 cell line = test: Acute toxicity on U937 cell line; type: cell-based; details: U937 cells

Structure (SMILES): CS(=O)(=O)c1ccc(-n2nc(CNC(=O)NC3CCCCCC3)cc2-c2ccccc2)cc1 [Compound 11b, 1-Cycloheptyl-3-[1-(4-methanesulfonyl-phenyl)-5-phenyl-1H-pyrazol-3-ylmethyl]-urea]
- improvement of sEH inhibition (recombinant human sEH; compared with compound 11a): 10 fold

Structure (SMILES): NS(=O)(=O)c1ccc(-n2nc(CCNC(=O)Nc3cccc(C(F)(F)F)c3)cc2-c2ccccc2)cc1 [Compound 15, 4-(5-Phenyl-3-{2-[3-(3-trifluoromethyl-phenyl)-ureido]-ethyl}-pyrazol-1-yl)-benzenesulfonamide]
- improvement of sEH inhibition (recombinant human sEH; compared to compound 11g): 3 fold

Structure (SMILES): NS(=O)(=O)c1ccc(-n2nc(CCCNC(=O)Nc3cccc(C(F)(F)F)c3)cc2-c2ccccc2)cc1 [Compound 21b, 4-(5-Phenyl-3-{3-[3-(3-trifluoromethyl-phenyl)-ureido]-propyl}-pyrazol-1-yl)-benzenesulfonamide]
- improvement of sEH inhibition (recombinant human sEH; compared to compound 11g): 20 fold
- decrease in AUC [1]: 8 fold
- lower Cmax [1]: 15 fold

Structure (SMILES): Cc1ccc(-c2cc(CCCNC(=O)Nc3cccc(C(F)(F)F)c3)nn2-c2ccc(S(N)(=O)=O)cc2)cc1 [Compound 21c]
- diminished sEH activity (recombinant human sEH; compared to compound 21b): 3 fold
- diminished COX-2 activity (human recombinant COX-2): 3 fold

Structure (SMILES): NS(=O)(=O)c1ccc(-n2nc(CCCNC(=O)Nc3ccc(C(F)(F)F)cc3)cc2-c2ccccc2)cc1 [Compound 21i, 4-(5-Phenyl-3-{3-[3-(4-trifluoromethyl-phenyl)-ureido]-propyl}-pyrazol-1-yl)-benzenesulfonamide]
- higher Cmax [2]: 2 fold
- overt signs of behavioral changes or acute toxicity (Sprague-Dawley rats): no overt signs of any behavioral changes or acute observable symptoms of toxicity
- acute toxicity on U937 cell line (U937 cell line): did not observe any acute toxicity

— article PMC3281519 (Journal of Medicinal Chemistry, 2011)
